Source: patent publication US9480251B2, “Insecticidal compositions and method for insect control” (FMC Corporation, priority 2010, dated 2016)

What was measured:
Type in all cases: in vivo
[1] = system: longtail mealy bug (Pseudococcus longispinus); test: Spray to runoff of infested Euonymus leaves, longtail mealy bug; settings: ten bugs on variegated Euonymus leaves sprayed until runoff, assessed after 24 hours
Protocol: Formulations of geraniol, cedar oil and mixtures thereof were evaluated for contact toxicity against the Lasius ant (Lasius niger), lady beetle (Harmonia axyridis), brown stink bug (Halyomorpha halys), green peach aphid (Myzus persicae), house cricket (Acheta domesticus) and longtail mealy bug (Pseudococcus longispinus). The plant oil test solutions were prepared by dissolving the appropriate amount of the plant oil(s) in deionized water containing 0.5% by weight sodium laureth sulfate, for example 4.4 grams of geraniol was dissolved in 1 liter of deioinized water containing 5 grams of sodium laureth sulfate to prepare a 0.44% test solution of geraniol. Each test solution was poured into a 16 ounce spray can, a valve was installed and the can was charged with carbon dioxide as the propellant. Direct spraying of the test substance onto insects was performed to determine the efficacy of each test solution as follows:
Longtail mealy bug test—In separate tests, ten longtail mealy bugs were established on several leaves of a variegated Euonymus plant, the infested leaves were sprayed with the appropriate test solution until runoff.

[2] = system: brown stink bug (Halyomorpha halys); test: Direct spray contact toxicity, brown stink bug; settings: ten insects on concrete slab, directly sprayed for 2 seconds
Protocol: (§1) Formulations of geraniol, cedar oil and mixtures thereof were evaluated for contact toxicity against the Lasius ant (Lasius niger), lady beetle (Harmonia axyridis), brown stink bug (Halyomorpha halys), green peach aphid (Myzus persicae), house cricket (Acheta domesticus) and […] bug (Pseudococcus longispinus). […] Each test solution was poured into a 16 ounce spray can, a valve was installed and the can was charged with carbon dioxide as the propellant. Direct spraying of the test substance onto insects was performed to determine the efficacy of each test solution as follows: Brown stink bug and house cricket test-In separate tests, ten insects of each species were placed onto a concrete slab and directly sprayed for 2 seconds with the appropriate test solutions.

[3] = system: house cricket (Acheta domesticus); test: Direct spray contact toxicity, house cricket; settings: ten insects on concrete slab, directly sprayed for 2 seconds
Protocol: as §1

[4] = system: lady beetle (Harmonia axyridis); test: Direct spray contact toxicity, lady beetle; settings: ten insects on asphalt slab, directly sprayed for 2 seconds
Protocol: as §1, with “follows: Lasius ant” for “follows: Brown stink bug”, “and lady beetle” for “and house cricket”, “onto an asphalt” for “onto a concrete”

[5] = system: Lasius ant (Lasius niger); test: Direct spray contact toxicity, Lasius ant; settings: ten insects on asphalt slab, directly sprayed for 2 seconds
Protocol: as §1, with “follows: Lasius ant” for “follows: Brown stink bug”, “and lady beetle” for “and house cricket”, “onto an asphalt” for “onto a concrete”

[6] = system: green peach aphid (Myzus persicae); test: Spray to runoff of infested bell pepper plant, green peach aphid; settings: infested bell pepper plant sprayed until runoff
Protocol: as §1, with “Green peach aphid” for “Brown stink bug and house cricket”, “tests,” for “tests, ten insects of each species were placed onto”, “bell pepper plant, infested with green peach aphids, was” for “concrete slab and directly”, “sprayed” for “sprayed for 2 seconds”, “solution until runoff.” for “solutions.”

CC(C)=CCC/C(C)=C/CO [0.44% geraniol, trans-3,7-dimethyl-2,6-octadien-1-ol]
mortality at 24 hours [1]: 50% mortality at
Recovery from knockdown [2]: None
Time to 100% Knockdown [2]: 20 s
Time to 100% mortality [2]: 90 s
Recovery from knockdown [3]: None
Time to 100% Knockdown [3]: 60 s
Time to 100% mortality [3]: 3 h
Recovery from knockdown [4]: None
Time to 100% Knockdown [4]: 20 s
Time to 100% mortality [4]: 60 s
Recovery from knockdown [5]: None
Time to 100% Knockdown [5]: 9 s
Time to 100% mortality [5]: 20 s
Recovery from knockdown [6]: None
Time to 100% Knockdown [6]: No apparent
Time to 100% mortality [6]: 3 h
